This is an account of results in ChEMBL document CHEMBL3217624, “Probing androgen receptor co-factor selectivity profiles: a chemical tool to determine cross-talk between androgen receptor and -catenin in vivo” (Medchemcomm, 2013).

Assay [1] deals with Rattus norvegicus. Put plainly: Androgenic activity in sc dosed ORX rat model assessed as increase in hepatic carnitine palmitoyltransferase1 expression after 11 days by RT-PCR analysis relative to sham control. The format is functional.
The target in assay [2] is T1, Androgen receptor (Homo sapiens, UniProt P10275).
T1 sequence (P10275 whole entry): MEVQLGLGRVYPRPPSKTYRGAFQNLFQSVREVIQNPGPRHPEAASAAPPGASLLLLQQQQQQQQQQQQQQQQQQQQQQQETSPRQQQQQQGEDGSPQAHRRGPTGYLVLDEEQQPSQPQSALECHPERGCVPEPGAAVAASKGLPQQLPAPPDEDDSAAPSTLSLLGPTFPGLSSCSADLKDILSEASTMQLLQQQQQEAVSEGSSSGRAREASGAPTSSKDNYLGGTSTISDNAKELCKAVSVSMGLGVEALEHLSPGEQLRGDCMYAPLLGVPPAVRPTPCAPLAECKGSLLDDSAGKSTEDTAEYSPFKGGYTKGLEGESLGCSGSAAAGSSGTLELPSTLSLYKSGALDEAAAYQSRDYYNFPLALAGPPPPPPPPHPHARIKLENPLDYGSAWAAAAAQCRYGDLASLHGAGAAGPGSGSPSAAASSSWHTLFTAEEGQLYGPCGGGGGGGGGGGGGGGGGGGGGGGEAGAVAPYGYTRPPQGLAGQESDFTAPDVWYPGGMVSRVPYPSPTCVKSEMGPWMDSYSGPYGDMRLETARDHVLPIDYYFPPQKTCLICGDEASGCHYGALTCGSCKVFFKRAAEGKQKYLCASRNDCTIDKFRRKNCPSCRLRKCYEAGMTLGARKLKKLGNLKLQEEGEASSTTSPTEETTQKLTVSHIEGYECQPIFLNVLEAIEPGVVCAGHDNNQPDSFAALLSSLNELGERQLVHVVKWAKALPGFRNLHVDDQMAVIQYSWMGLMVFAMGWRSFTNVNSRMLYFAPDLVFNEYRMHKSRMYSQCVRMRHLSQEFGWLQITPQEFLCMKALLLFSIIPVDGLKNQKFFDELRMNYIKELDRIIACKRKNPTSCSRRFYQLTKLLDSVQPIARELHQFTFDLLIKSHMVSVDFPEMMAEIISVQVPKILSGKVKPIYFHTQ
The assay is described as follows: Agonist activity at human AR expressed in African green monkey CV1 cells after 17 hrs by ARE-driven luciferase reporter gene assay. The format is cell-based, CV-1.

For assay [3], the target named is T2, Androgen receptor (Homo sapiens) (UniProt P10275).
T2 sequence (whole entry): T1 sequence (P10275 whole entry)
Put plainly: Agonist activity at human AR expressed in African green monkey CV1 cells assessed as supression of beta-catenin at 1000 nM after 17 hrs by Wnt 12xTcf-luciferase reporter gene assay relative to control. The format is cell-based. Conditions: CV-1.

For assay [4], the target named is T1, Androgen receptor. The assay is described as follows: Displacement of [3H]mibolerone from human AR expressed in COS cells after 3.5 hrs by liquid scintillation counting analysis. The format is cell-based.
The subject of assay [5] is Rattus norvegicus. Put plainly: Androgenic activity in ORX rat model assessed as reduction in plasma luteinizing hormone level at 10 mg/kg, sc qd after 11 days relative to sham control. The format is functional, organism-based. Also noted: dose 10 mg/kg.
The test system of assay [6] is Rattus norvegicus. Put plainly: Androgenic activity in ORX rat model assessed as reduction in plasma luteinizing hormone level at 3 mg/kg, sc qd after 11 days relative to sham control. More on the design: dose 3 mg/kg. The format is functional, organism-based.
Assay [7] deals with Rattus norvegicus. Put plainly: Androgenic activity in ORX rat model assessed as restoration of hepatic hydroxyacid oxidase2 expression at 10 to 30 mg/kg, sc qd after 11 days by RT-PCR analysis relative to sham control. The format is functional. Conditions: dose mg/kg 10-30; route subcutaneous.
Assay [8] has as its system Rattus norvegicus. Put plainly: Androgenic activity in ORX rat model assessed as effect on seminal vesicle weight at 3 to 30 mg/kg, sc qd after 11 days relative to sham control. The format is functional, organism-based.
Assay [9] has as its system Rattus norvegicus. The assay is described as follows: Androgenic activity in ORX rat model assessed as reduction in plasma luteinizing hormone level at 30 mg/kg, sc qd after 11 days relative to sham control. The format is functional, organism-based. Also noted: dose 30 mg/kg.
Assay [10] deals with Rattus norvegicus. The assay is described as follows: Androgenic activity in ORX rat model assessed as increase in prostate weight at 1 mg/kg, sc qd after 11 days relative to sham control. The format is functional, organism-based. More on the design: dose 1 mg/kg. The note with it: Prostate gland.
Assay [11] concerns Rattus norvegicus. The assay is described as follows: Androgenic activity in ORX rat model assessed as increase in levator ani muscle weight at 1 mg/kg, sc qd after 11 days relative to sham control. The format is functional, organism-based. Also noted: dose 1 mg/kg.
Assay [12] has as its system Rattus norvegicus. Put plainly: Androgenic activity in ORX rat model assessed as increase in seminal vesicle weight at 1 mg/kg, sc qd after 11 days relative to sham control. The format is functional, organism-based. More on the design: dose 1 mg/kg.
Assay [13] relates to Rattus norvegicus. Put plainly: Androgenic activity in ORX rat model assessed as restoration of hepatic hydroxyacid oxidase2 expression at 1 mg/kg, sc qd after 11 days by RT-PCR analysis relative to sham control. The format is functional, organism-based. Also noted: dose 1 mg/kg.
Assay [14] deals with Rattus norvegicus. Put plainly: Androgenic activity in ORX rat model assessed as reduction in plasma luteinizing hormone level at 1 mg/kg, sc qd after 11 days relative to sham control. The format is functional, organism-based. Also noted: dose 1 mg/kg.
Assay [15] relates to Rattus norvegicus. The assay is described as follows: Androgenic activity in ORX rat model assessed as increase in hepatic carnitine palmitoyltransferase1 expression at 1 mg/kg, sc qd after 11 days by RT-PCR analysis relative to sham control. The format is functional. Conditions: route subcutaneous.

Calls of active or inactive are those of the source. The rule behind the calls is not given here.

Take `CN1C(=O)C(F)=C[C@]2(C)[C@H]3CC[C@]4(C)[C@@H](C(=O)NCc5nc6cccnc6[nH]5)CC[C@H]4[C@@H]3CC[C@@H]12` [MK-0773]: the Activity entry is “Dose-dependent effect” with Rattus norvegicus [1] and 32% in assay [3]. Also, the figures for the “fold change (FC)” value in the assay on Rattus norvegicus [1] and in the assay with Rattus norvegicus [7] were 2 and 2.5, respectively. This molecule had an EC50 on Androgen receptor [2] of 144 nM. This molecule showed an IC50 on Androgen receptor [4] of 196 nM. In the assay on Rattus norvegicus [5], the outcome was Active. For the same molecule, the outcome with Rattus norvegicus [6], in the assay on Rattus norvegicus [8] and with Rattus norvegicus [9] was inactive.
As to `CCC(=O)O[C@H]1CC[C@H]2[C@@H]3CCC4=CC(=O)CC[C@]4(C)[C@H]3CC[C@]12C` [TESTOSTERONE PROPIONATE], the result in the assay on Rattus norvegicus [10], in the assay with Rattus norvegicus [11], in the assay on Rattus norvegicus [12], in the assay with Rattus norvegicus [13] and in the assay on Rattus norvegicus [14] was Active. The molecule also had an IC50 at Androgen receptor [4] of 18 nM. The “fold change (FC)” value with Rattus norvegicus [15] is 2.
